Reference: US10703746B2, “Mutant IDH1 inhibitors useful for treating cancer” (THE UNITED STATES OF AMERICA, AS REPRESENTED BY THE …, priority 2014, dated 2020)

Assays:
IDH1 R132C = IDH1 R132C (Homo sapiens, UniProt O75874, R132C); test: IDH1 R132C enzymatic assay (NADPH depletion coupled to diaphorase/resazurin); assay type: biochemical; settings: enzymatic inhibition, IDH1 R132C
In short: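 NADPH depletion, read via diaphorase/resazurin coupling, after adding substrate at 0.6 mM α-KG and 0.012 mM NADPH. Beforehand, 0.00032 mg/mL enzyme sat with compound 30 min at room temperature in pH 6.5 potassium phosphate buffer with MgCl2, glycerol and BSA.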

IDH1 R132H = IDH1 R132H (Homo sapiens, UniProt O75874, R132H); test: IDH1 R132H enzymatic assay (NADPH depletion coupled to diaphorase/resazurin); assay type: biochemical; settings: enzymatic inhibition, IDH1 R132H
Sequence of IDH1 R132H (O75874 whole entry R132H): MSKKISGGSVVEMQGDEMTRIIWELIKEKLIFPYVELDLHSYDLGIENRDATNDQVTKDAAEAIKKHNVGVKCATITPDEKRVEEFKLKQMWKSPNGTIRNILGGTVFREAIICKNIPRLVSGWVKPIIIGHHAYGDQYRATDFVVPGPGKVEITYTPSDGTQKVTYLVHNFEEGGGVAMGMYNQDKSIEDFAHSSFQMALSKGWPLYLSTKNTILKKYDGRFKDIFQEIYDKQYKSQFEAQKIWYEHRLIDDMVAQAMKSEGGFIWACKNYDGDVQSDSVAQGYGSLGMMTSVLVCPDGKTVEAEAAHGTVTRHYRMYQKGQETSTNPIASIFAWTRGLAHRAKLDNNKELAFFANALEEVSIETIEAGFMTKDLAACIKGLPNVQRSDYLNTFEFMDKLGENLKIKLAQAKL

Sequence of IDH1 R132C (O75874 whole entry R132C): as the sequence (O75874 whole entry R132H) above, with H132C counted along it

Row | SMILES | IC50 (IDH1 R132C) | IC50 (IDH1 R132H)
1 | CCc1cccc(CC)c1-n1c(C=C(C)C)c(C(=O)N2CCNCC2COC)cc(-c2nc(-c3ccc(Cl)cc3)cs2)c1=O (centres unmarked) [Compound 536] | < 300 nM | < 300 nM
2 | CCc1cccc(CC)c1-n1c(C=C(C)C)c(C(=O)N2CCNC(=O)CC2)cc(-c2nc(-c3ccc(Cl)cc3)cs2)c1=O [Compound 537] | < 300 nM | < 300 nM
3 | CCc1ccc(OC)cc1-n1c(C=C(C)C)c(C(=O)N2CCNCC2)cc(-c2nc(-c3ccc(Cl)cc3)cs2)c1=O [Compound 539] | < 300 nM | < 300 nM
4 | CCc1cccc(CC)c1-n1c(CC(C)C)c(C(=O)N2CCNCC2)cc(-c2nc(-c3ccc(Cl)cc3C)c(C)s2)c1=O [Compound 540] | 1000 to 5000 nM | 1000 to 5000 nM
5 | COc1ncc(C)cc1-n1c(C=C(C)C)c(C(=O)N2CCNCC2)cc(-c2ccn(-c3ccc(C(F)(F)F)cc3)n2)c1=O [Compound 541] | 1000 to 5000 nM | < 300 nM
6 | CCCC1CN(C(=O)c2cc(-c3nc(-c4ccc(Cl)cc4)cs3)c(=O)n(-c3c(CC)cccc3CC)c2C=C(C)C)CCN1 (centres unmarked) [Compound 542] | < 300 nM | < 300 nM
7 | CCc1cccc(C)c1-n1c2c(cc(-c3nc(-c4ccccc4)cs3)c1=O)C(=O)CCC2 [Compound 543] | 1000 to 5000 nM | 5000 to 20000 nM
8 | CCOc1ncc(C)cc1-n1c(C=C(C)C)c(C(=O)N2CCNCC2)cc(-c2nc(-c3ccc(Cl)cc3)cs2)c1=O [Compound 544] | < 300 nM | < 300 nM
9 | CCc1cccc(CC)c1-n1c(C=C(C)C)c(C(=O)N2CCNCC2)cc(-c2nc(-c3ccc(C(F)F)nc3)cs2)c1=O [Compound 546] | < 300 nM | < 300 nM
10 | CN1CCN(Cc2ccccc2-n2c3c(cc(-c4nc(-c5ccc(Cl)cc5)cs4)c2=O)C(=O)CC(C)(C)C3)CC1 [Compound 547] | 5000 to 20000 nM | 5000 to 20000 nM
11 | CCc1ccc(Cl)c(CC)c1-n1c2c(cc(-c3nc(-c4ccc(Cl)cc4)cs3)c1=O)C(=O)CC(C)(C)C2 [Compound 548] | < 300 nM | < 300 nM
12 | CCc1cccc(CC)c1-n1c(C2CCCCC2)c(C(=O)N2CCNCC2)cc(-c2nc(-c3ccc(Cl)cc3)cs2)c1=O [Compound 549] | 300 to 1000 nM | 1000 to 5000 nM
13 | CCc1cccc(CC)c1-n1c(C=C(C)C)c(C(=O)N2CCNC(CC)C2)cc(-c2nc(-c3ccc(Cl)cc3)cs2)c1=O (centres unmarked) [Compound 550] | < 300 nM | < 300 nM
14 | CCc1cccc(CC)c1-n1c(CC(C)C)c(C(=O)N2CCNCC2)cc(-c2nc(-c3ccc(Cl)c(Cl)c3)c(C)s2)c1=O [Compound 551] | < 300 nM | 300 to 1000 nM
15 | CCOc1ccc(-n2ccc(-c3cc(C(=O)N4CCNCC4)c(C=C(C)C)n(-c4c(CC)cccc4CC)c3=O)n2)cc1 [Compound 552] | < 300 nM | < 300 nM
16 | CC(C)=Cc1c(C(=O)N2CCNCC2)cc(-c2nc(-c3ccc(Cl)cc3)cs2)c(=O)n1-c1cc(Cl)ccc1OC(C)C [Compound 553] | < 300 nM | < 300 nM
17 | CCc1cccc(CC)c1-n1c(CC(C)C)c(C(=O)N2CCNCC2)cc(-c2nc(/C=C/c3ccc(Cl)cc3)c(C)s2)c1=O [Compound 555] | 300 to 1000 nM | 1000 to 5000 nM
18 | COc1cccc(F)c1-n1c(C=C(C)C)c(C(=O)N2CCNCC2)cc(-c2nc(-c3ccc(Cl)cc3)cs2)c1=O [Compound 556] | < 300 nM | < 300 nM
19 | COc1cc(F)ccc1-n1c2c(cc(-c3nc(-c4ccc(Cl)cc4)cs3)c1=O)C(=O)CC(C)(C)C2 [Compound 557] | 1000 to 5000 nM | 1000 to 5000 nM
20 | C#Cc1ccccc1-n1c(C=C(C)C)c(C(=O)N2CCNCC2)cc(-c2nc(-c3ccc(Cl)cc3)cs2)c1=O [Compound 558] | < 300 nM | < 300 nM
21 | CCc1cccc(CC)c1-n1c(C=C(C)C)c(C(=O)N2CCNCC2)cc(-c2nc(-c3ccc(C(F)F)cn3)cs2)c1=O [Compound 559] | < 300 nM | < 300 nM
22 | CCOC(=O)c1ncsc1-n1c2c(cc(-c3nc(-c4ccc(Cl)cc4)cs3)c1=O)C(=O)CC(C)(C)C2 [Compound 561] | 1000 to 5000 nM | 1000 to 5000 nM
23 | CCOc1ncc(C)cc1-n1c(C=C(C)C)c(C(=O)N2CCNCC2)cc(-c2nc(-c3ccc(C(F)F)cc3)cs2)c1=O [Compound 562] | < 300 nM | < 300 nM
24 | Cc1ccc(CN2CCN(C)CC2)cc1-n1c2c(cc(-c3nc(-c4ccc(Cl)cc4)cs3)c1=O)C(=O)CCC2 [Compound 563] | > 20000 nM | > 20000 nM
25 | O=C1CCCc2c1cc(-c1nc(-c3ccc(Cl)cc3)cs1)c(=O)n2-c1cccc(CO)c1 [Compound 565] | 5000 to 20000 nM | 5000 to 20000 nM
26 | COc1cccc(-n2c3c(cc(-c4nc(-c5ccc(Cl)cc5)cs4)c2=O)C(=O)CC(C)(C)C3)c1OC [Compound 567] | 1000 to 5000 nM | 1000 to 5000 nM

Row | SMILES | IC50 (IDH1 R132C) | IC50 (IDH1 R132H)
27 | CCOc1ncc(F)cc1-n1c(C=C(C)C)c(C(=O)N2CCNCC2)cc(-c2nc(-c3ccc(C(F)(F)F)cc3)cs2)c1=O [Compound 568] | < 300 nM | < 300 nM
28 | CCc1cccc(CC)c1-n1c(C=C(C)C)c(C(=O)N2CCNCC2CC)cc(-c2nc(-c3ccc(Cl)cc3)cs2)c1=O (centres unmarked) [Compound 569] | < 300 nM | < 300 nM
29 | CN1CCN(Cc2cccc(-n3c4c(cc(-c5nc(-c6ccc(Cl)cc6)cs5)c3=O)C(=O)CCC4)c2)CC1 [Compound 570] | > 20000 nM | > 20000 nM
30 | CCc1ccc(Cl)cc1-n1c(C=C(C)C)c(C(=O)N2CCNCC2)cc(-c2nc(-c3ccc(C(F)F)cc3)cs2)c1=O [Compound 571] | < 300 nM | < 300 nM
31 | CCOc1ccccc1-n1c(C=C(C)C)c(C(=O)N2CCNCC2)cc(-c2nc(-c3ccc(Cl)cc3)cs2)c1=O [Compound 572] | < 300 nM | < 300 nM
32 | CCc1cccc(CC)c1-n1c(CC(C)C)c(C(=O)N2CCNCC2)cc(-c2nc(-c3ccc(Cl)cc3OC)c(C)s2)c1=O [Compound 573] | 300 to 1000 nM | 300 to 1000 nM
33 | CCOc1ncc(Cl)cc1-n1c(C=C(C)C)c(C(=O)N2CCNCC2)cc(-c2nc(-c3ccc(Cl)cc3)cs2)c1=O [Compound 575] | < 300 nM | < 300 nM
34 | CCc1ccc(Cl)cc1-n1c(C=C(C)C)c(C(=O)N2CCNCC2)cc(-c2nc(-c3ccc(C(F)(F)F)cc3)cs2)c1=O [Compound 576] | < 300 nM | < 300 nM
35 | CCc1cccc(CC)c1-n1c(C=C(C)C)c(C(=O)N2CCN[C@@H](C(=O)O)C2)cc(-c2nc(-c3ccc(C(F)(F)F)cc3)cs2)c1=O [Compound 577] | < 300 nM | < 300 nM
36 | CCOc1cccc(CC)c1-n1c(C=C(C)C)c(C(=O)N2CCNCC2)cc(-c2nc(-c3ccc(Cl)cc3)cs2)c1=O [Compound 578] | < 300 nM | < 300 nM
37 | COc1cc(Cl)ccc1-n1c2c(cc(-c3nc(-c4ccc(Cl)cc4)cs3)c1=O)C(=O)CC(C)(C)C2 [Compound 579] | 5000 to 20000 nM | 5000 to 20000 nM
38 | CCOc1ncc(Cl)cc1-n1c(C=C(C)C)c(C(=O)N2CCNCC2)cc(-c2nc(-c3ccc(C(F)F)nc3)cs2)c1=O [Compound 580] | 300 to 1000 nM | < 300 nM
39 | CCc1cccc(CC)c1-n1c(C=C(C)C)c(C(=O)N2CCNCC2)cc(-c2nc(-c3ccc(C(F)(F)F)cc3)cs2)c1=O [Compound 581, 1-(2,6-diethylphenyl)-6-(2-methylprop-1-en-1-yl)-5-(piperazine-1-carbonyl)-3-(4-(4-(trifluoromethyl)phenyl)thiazol-2-yl)pyridin-2(1H)-one] | < 300 nM | < 300 nM
40 | CCc1ccc(F)cc1-n1c(C=C(C)C)c(C(=O)N2CCNCC2)cc(-c2nc(-c3ccc(C(F)(F)F)cc3)cs2)c1=O [Compound 583] | < 300 nM | < 300 nM
41 | COCc1ncc(Cl)cc1-n1c(C=C(C)C)c(C(=O)N2CCNCC2)cc(-c2nc(-c3ccc(C(F)(F)F)cc3)cs2)c1=O [Compound 586] | < 300 nM | < 300 nM
42 | CCOc1ncc(C)cc1-n1c(C=C(C)C)c(C(=O)N2CCNCC2)cc(-c2nc(-c3ccc(C(F)(F)F)cc3)cs2)c1=O [Compound 587] | < 300 nM | < 300 nM
43 | CC(C)=Cc1c(C(=O)N2CCNCC2)cc(-c2nc(-c3ccc(Cl)cc3)cs2)c(=O)n1-c1ccccc1OCC(F)(F)F [Compound 589] | < 300 nM | < 300 nM
44 | O=C1CCCc2c1cc(-c1nc(-c3ccc(Cl)cc3)cs1)c(=O)n2-c1ccccc1CCO [Compound 590] | 5000 to 20000 nM | 5000 to 20000 nM
45 | CCc1cccc(CC)c1-n1c(C=C(C)C)c(C(=O)N2CCNC(C(=O)O)C2)cc(-c2nc(-c3ccc(Cl)cc3)cs2)c1=O (centres unmarked) [Compound 591] | < 300 nM | < 300 nM
46 | CCOc1ncc(C)cc1-n1c(C=C(C)C)c(C(=O)N2CCNCC2)cc(-c2nc(-c3ccc(C(F)F)cn3)cs2)c1=O [Compound 592] | 1000 to 5000 nM | 300 to 1000 nM
47 | CCc1cccc(CC)c1-n1c(C=C(C)C)c(C(=O)N2CCNC(=O)C2)cc(-c2ccn(-c3ccc(Cl)cc3)n2)c1=O [Compound 593] | < 300 nM | < 300 nM
48 | Cc1ccc(-n2c3c(cc(-c4nc(-c5ccc(Cl)cc5)cs4)c2=O)C(=O)CC(C)(C)C3)c(Cl)c1 [Compound 594] | 1000 to 5000 nM | > 20000 nM
49 | Cc1[nH]c(=O)c(-c2nc(-c3ccc(Cl)cc3)cs2)cc1C(=O)N1CCNCC1 [Compound 595] | > 20000 nM | > 20000 nM
50 | CCc1ccccc1-n1c(C=C(C)C)c(C(=O)N2CCNCC2)cc(-c2nc(-c3ccc(Cl)cc3)cs2)c1=O [Compound 596] | < 300 nM | < 300 nM
51 | COc1ccc(-n2c3c(cc(-c4nc(-c5ccc(Cl)cc5)cs4)c2=O)C(=O)CC(C)(C)C3)c(OC)c1 [Compound 597] | > 20000 nM | > 20000 nM
52 | CCOc1ccc(-c2csc(-c3cc(C(=O)N4CCNCC4)c(C=C(C)C)n(-c4c(CC)cccc4CC)c3=O)n2)cc1 [Compound 598] | < 300 nM | < 300 nM
